From patent publication US6025467A, “Parathyroid hormone derivatives and their use” (Takeda Chemical Industries, Ltd., priority 1995, dated 2000)
Residues, ends and D or L forms follow the SMILES beside them.

How the values were obtained:
PTH receptor = biological target: T1, PTH receptor (Mus musculus, UniProt P41593); test: cAMP increase in MC3T3-EI osteoblast-like cells (biological activity in vitro); assay type: cell-based; conditions: 1 nM analogue, room temperature for 30 minutes, total cAMP by radioimmunoassay
T1 construct: a mouse cranial bone-derived osteoblast-like cell strain, MC3T3-EI cells; endogenous in cells; host or cells: MC3T3-E1 mouse osteoblast-like cells
T1 sequence (P41593 27-591): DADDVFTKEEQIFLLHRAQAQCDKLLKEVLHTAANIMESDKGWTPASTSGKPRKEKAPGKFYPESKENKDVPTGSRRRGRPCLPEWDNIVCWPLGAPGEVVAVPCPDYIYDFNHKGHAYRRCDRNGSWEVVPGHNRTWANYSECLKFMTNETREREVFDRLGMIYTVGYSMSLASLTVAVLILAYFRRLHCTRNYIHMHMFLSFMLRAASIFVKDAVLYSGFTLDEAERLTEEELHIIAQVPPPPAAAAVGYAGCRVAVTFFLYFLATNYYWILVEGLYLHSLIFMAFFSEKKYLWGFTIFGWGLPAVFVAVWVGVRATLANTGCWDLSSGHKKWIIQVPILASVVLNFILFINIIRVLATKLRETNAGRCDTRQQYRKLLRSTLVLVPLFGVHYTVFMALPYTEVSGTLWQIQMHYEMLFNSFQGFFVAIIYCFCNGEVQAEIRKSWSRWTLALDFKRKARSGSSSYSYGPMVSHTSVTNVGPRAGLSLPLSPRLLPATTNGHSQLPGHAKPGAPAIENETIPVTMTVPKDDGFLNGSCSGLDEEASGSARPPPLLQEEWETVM
Experimental: The biological activity of the PTH(1-34) peptide analogues was evaluated by the method reported by Shigeno et al., The Journal of Biological Chemistry, 263, 18369-18377 (1988) with a modification. A culture solution (Hank's solution, containing 20 mM N-2-hydroxyethylpiperazine-N'-2-ethanesulfonic acid (HEPES), 0.1% bovine serum albumin and 0.5 mM isobutylmethyl-xanthine) containing a 0.01, 0.1, 1, 10 or 100 nM peptide derivative was added in an amount of 100 μl to a mouse cranial bone-derived osteoblast-like cell strain, MC3T3-EI cells, cultivated on a 96-well multiplate (Nunclon, Nunc), followed by reaction at room temperature for 30 minutes. After addition of 100 μl of 0.2N hydrochloric acid, the plate was immersed in boiling water for 2.5 minutes to extract cyclic adenosine monophosphate (cAMP) produced by a PTH receptor from the cells. The total cAMP in the culture solution and the cells was assayed using a commercial radioimmunoassay kit (cyclic AMP [^125 I] kit "Du Pont-Daiichi", Daiichi Kagaku Yakuhin). For the biological activity of the PTH(1-34) peptide derivatives, increases in cAMP caused by 1 nM analogues are shown in Table 3.

Sprangue Dawley rats = test: Increase in femur bone weight in rats after subcutaneous dosing; assay type: in vivo, rat; conditions: 4.9 nmol/kg a day subcutaneously for two weeks; four-week-old male rats; dried right femur weight compared with vehicle group
Experimental: To four-week-old male Sprangue Dawley rats, the compounds synthesized in Example 1 […], and increases in the bone weight in their femurs were compared with that of a group to which a vehicle (0.15M NaCl, 0.001N hydrochloric acid and 2% heat-inactivated rat serum) was given. After administration, their right femurs were taken out, and the tissues around them were removed. Then, the femurs were dried at 100° C. for 3 hours and weighed.

CC[C@H](C)[C@H](NC(=O)[C@H](CCC(=O)O)NC(=O)[C@H](CO)NC(=O)[C@@H](NC(=O)[C@@H](N)CO)C(C)C)C(=O)N[C@@H](CCC(N)=O)C(=O)N[C@@H](CC(C)C)C(=O)N[C@@H](CCSC)C(=O)N[C@@H](Cc1c[nH]cn1)C(=O)N[C@@H](CC(=O)O)C(=O)N[C@@H](CC(C)C)C(=O)NCC(=O)N[C@@H](CCCCN)C(=O)N[C@@H](Cc1c[nH]cn1)C(=O)N[C@@H](CC(C)C)C(=O)N[C@@H](CC(N)=O)C(=O)N[C@@H](CO)C(=O)N[C@@H](CCSC)C(=O)N[C@@H](CCC(=O)O)C(=O)N[C@@H](CCCNC(=N)N)C(=O)N[C@H](C(=O)N[C@@H](CCC(=O)O)C(=O)N[C@@H](Cc1c[nH]c2ccccc12)C(=O)N[C@@H](CC(C)C)C(=O)N[C@@H](CCCNC(=N)N)C(=O)N[C@@H](CCCCN)C(=O)N[C@@H](CCCCN)C(=O)N[C@@H](CC(C)C)C(=O)N[C@@H](CCC(N)=O)C(=O)N[C@@H](CC(=O)O)C(=O)N[C@H](C(=O)N[C@@H](Cc1c[nH]cn1)C(=O)N[C@@H](CC(N)=O)C(=O)N[C@@H](Cc1ccccc1)C(=O)O)C(C)C)C(C)C [(3), [Asp^10] hPTH(1-34)]
cAMP increase (PTH receptor): 0.60 pmol/well | bone increase (Sprangue Dawley rats): 26.1 mg

CC[C@H](C)[C@H](NC(=O)[C@H](CCC(=O)O)NC(=O)[C@H](CO)NC(=O)[C@@H](NC(=O)[C@@H](N)CO)C(C)C)C(=O)N[C@@H](CCC(N)=O)C(=O)N[C@@H](CC(C)C)C(=O)N[C@@H](CCSC)C(=O)N[C@@H](Cc1c[nH]cn1)C(=O)N[C@@H](CCC(=O)O)C(=O)N[C@@H](CC(C)C)C(=O)NCC(=O)N[C@@H](CCCCN)C(=O)N[C@@H](Cc1c[nH]cn1)C(=O)N[C@@H](CC(C)C)C(=O)N[C@@H](CC(N)=O)C(=O)N[C@@H](CO)C(=O)N[C@@H](CCSC)C(=O)N[C@@H](CCC(=O)O)C(=O)N[C@@H](CCCNC(=N)N)C(=O)N[C@H](C(=O)N[C@@H](CCC(=O)O)C(=O)N[C@@H](Cc1c[nH]c2ccccc12)C(=O)N[C@@H](CC(C)C)C(=O)N[C@@H](CCCNC(=N)N)C(=O)N[C@@H](CCCCN)C(=O)N[C@@H](CCCCN)C(=O)N[C@@H](CC(C)C)C(=O)N[C@@H](CCC(N)=O)C(=O)N[C@@H](CC(=O)O)C(=O)N[C@H](C(=O)N[C@@H](Cc1c[nH]cn1)C(=O)N[C@@H](CC(N)=O)C(=O)N[C@@H](Cc1ccccc1)C(=O)O)C(C)C)C(C)C [(4), [Glu^10] hPTH(1-34)]
cAMP increase (PTH receptor): 1.81 pmol/well | bone increase (Sprangue Dawley rats): 31.1 mg

CC[C@H](C)[C@H](NC(=O)[C@H](CCC(=O)O)NC(=O)[C@H](CO)NC(=O)[C@@H](NC(=O)[C@@H](N)CO)C(C)C)C(=O)N[C@@H](CCC(N)=O)C(=O)N[C@@H](CC(C)C)C(=O)N[C@@H](CCSC)C(=O)N[C@@H](Cc1c[nH]cn1)C(=O)N[C@@H](CC(=O)O)C(=O)N[C@@H](Cc1ccccc1)C(=O)NCC(=O)N[C@@H](CCCCN)C(=O)N[C@@H](Cc1c[nH]cn1)C(=O)N[C@@H](CC(C)C)C(=O)N[C@@H](CC(N)=O)C(=O)N[C@@H](CO)C(=O)N[C@@H](CCSC)C(=O)N[C@@H](CCC(=O)O)C(=O)N[C@@H](CCCNC(=N)N)C(=O)N[C@H](C(=O)N[C@@H](CCC(=O)O)C(=O)N[C@@H](Cc1c[nH]c2ccccc12)C(=O)N[C@@H](CC(C)C)C(=O)N[C@@H](CCCNC(=N)N)C(=O)N[C@@H](CCCCN)C(=O)N[C@@H](CCCCN)C(=O)N[C@@H](CC(C)C)C(=O)N[C@@H](CCC(N)=O)C(=O)N[C@@H](CC(=O)O)C(=O)N[C@H](C(=O)N[C@@H](Cc1c[nH]cn1)C(=O)N[C@@H](CC(N)=O)C(=O)N[C@@H](Cc1ccccc1)C(=O)O)C(C)C)C(C)C [(5), [Asp^10, Phe^11] hPTH(1-34)] (H-SVSEIQLMHDFGKHLNSMERVEWLRKKLQDVHNF-OH)
cAMP increase (PTH receptor): 2.58 pmol/well | bone increase (Sprangue Dawley rats): 20.4 mg
